Values joined by “and” are separate entries in the source; they are usually repeats but may differ in a detail not shown here. Equal values may be shown once.
Legend:
Conditions in all cases: incubation time: 72 h
CAL-51 [1] = assay: normalised response (% of control), CellTiter-Glo; higher = more viable cells (100 = DMSO, 0 = benzethonium chloride kill control)
In short: (§1)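 Each entry is the normalised signal at a single concentration within a series. The series comprised 5 concentrations in 10-fold steps over a compound-specific 10,000-fold range, placed in 384-well plates into which breast cancer cell lines were seeded as 20 µl suspension and incubated 72 h. CellTox Green (485/520 nm) fluorescence and then CellTiter-Glo luminescence were read, with signals normalised per plate to 0.1 % DMSO (100) and a positive kill control (0).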

MCF-10A = assay: as above
In short: as §1

Hs578T = assay: as above
In short: as §1

HCC1599 = assay: as above
In short: as §1

CAL-148 [2] = assay: as above
In short: as §1

SK-BR-3 = assay: as above
In short: as §1

MDA-MB-468 = assay: as above
In short: as §1

MDA-MB-436 = assay: as above
In short: as §1

CAL-120 = assay: as above
In short: as §1

HDQ-P1 [3] = assay: as above
In short: as §1

DU-4475 [4] = assay: as above
In short: as §1

MDA-MB-231 = assay: as above
In short: as §1

MFM-223 = assay: as above
In short: as §1

BT-474 = assay: as above
In short: as §1

BT-549 = assay: as above
In short: as §1

CAL-51 [5] = assay: normalised viability (% of control), CellTiter-Blue; higher = more viable cells (about 100 = DMSO control)
Procedure: (§2)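 DSRT, CellTiter-Blue viability, 72 h incubation. Signal is normalised to DMSO and benzethonium chloride controls. Value is the normalised response at dose 7.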

MDA-MB-453 = assay: as above
Procedure: as §2

CAL-148 [6] = assay: as above
Procedure: as §2

HDQ-P1 [7] = assay: as above
Procedure: as §2

DU-4475 [8] = assay: as above
Procedure: as §2

CAL-85-1 = assay: as above
Procedure: as §2

`CC(C)C[C@@H](C(=O)N[C@H](C(=O)OC1CCCC1)c1ccccc1)[C@H](O)C(=O)NO` [Tosedostat] (1000 nM) was tested. Which normalised response (CAL-51 [1]) did it give?
The normalised response was 91%.

And the normalised response (MCF-10A)?
Its normalised response is 87.3%.

And the normalised response (Hs578T)?
Its normalised response is 84.6%.

And the normalised response (HCC1599)?
Its normalised response is 96.6%.

What about the normalised response (CAL-148 [2]) of the same compound?
Its normalised response is 72.9%.

What about the normalised response (SK-BR-3) of the same compound?
The normalised response was 76.2%.

And the normalised response (MDA-MB-468)?
Its normalised response is 28.7%.

And the normalised response (MDA-MB-436)?
The normalised response was 73.6%.

What about the normalised response (CAL-120) of the same compound?
The normalised response was 43.4%.

What about the normalised response (HDQ-P1 [3]) of the same compound?
Its normalised response is 74.1%.

And the normalised response (DU-4475 [4])?
The normalised response was 88.4%.

And the normalised response (MDA-MB-231)?
The normalised response was 59.7%.

And the normalised response (MFM-223)?
Its normalised response is 70.5%.

And the normalised response (BT-474)?
The normalised response was 40.6%.

What about the normalised response (BT-549) of the same compound?
The normalised response was 55.9%.

And the normalised viability (CAL-51 [5])?
Its normalised viability is 77.1%.

And the normalised viability (MDA-MB-453)?
Its normalised viability is 41.2%.

What about the normalised viability (CAL-148 [6]) of the same compound?
Its normalised viability is 67.8%.

And the normalised viability (HDQ-P1 [7])?
The normalised viability was 76.3%.

What about the normalised viability (DU-4475 [8]) of the same compound?
Its normalised viability is 51%.

What about the normalised viability (CAL-85-1) of the same compound?
Its normalised viability is 77%.

For `N#Cc1ccc(COC[C@H]2O[C@@H](n3c(NCc4ccc(Cl)c(Cl)c4)nc4c(N)ncnc43)[C@H](O)[C@@H]2O)cc1` (1000 nM), which normalised response (CAL-51 [1]) is on record?
The normalised response was 110%.

And the normalised response (MCF-10A)?
The normalised response was 96.6%.

What about the normalised response (Hs578T) of the same compound?
Its normalised response is 86.9%.

What about the normalised response (HCC1599) of the same compound?
Its normalised response is 116%.

What about the normalised response (CAL-148 [2]) of the same compound?
Its normalised response is 98.5%.

What about the normalised response (SK-BR-3) of the same compound?
The normalised response was 95.3%.

What about the normalised response (MDA-MB-468) of the same compound?
Its normalised response is 93.7%.

And the normalised response (MDA-MB-436)?
The normalised response was 109%.

And the normalised response (CAL-120)?
Its normalised response is 101%.

And the normalised response (HDQ-P1 [3])?
The normalised response was 98.7%.

And the normalised response (DU-4475 [4])?
The normalised response was 86%.

And the normalised response (MDA-MB-231)?
Its normalised response is 89.8%.

What about the normalised response (MFM-223) of the same compound?
Its normalised response is 98.9%.

What about the normalised response (BT-474) of the same compound?
Its normalised response is 81.8%.

What about the normalised response (BT-549) of the same compound?
Its normalised response is 89.9%.

And the normalised viability (CAL-51 [5])?
The normalised viability was 105%.

And the normalised viability (MDA-MB-453)?
The normalised viability was 93.2%.

And the normalised viability (CAL-148 [6])?
Its normalised viability is 101%.

What about the normalised viability (HDQ-P1 [7]) of the same compound?
The normalised viability was 81.2%.

What about the normalised viability (DU-4475 [8]) of the same compound?
Its normalised viability is 99.8%.

What about the normalised viability (CAL-85-1) of the same compound?
Its normalised viability is 88.9%.

Which normalised response (CAL-51 [1]) does the source give for `CNC(=O)c1cc(Oc2ccc(NC(=O)Nc3ccc(Cl)c(C(F)(F)F)c3)c(F)c2)ccn1` [Regorafenib] (1000 nM) here?
Its normalised response is 65.6%.

What about the normalised response (MCF-10A) of the same compound?
The normalised response was 90.6%.

And the normalised response (Hs578T)?
Its normalised response is 93.9%.

What about the normalised response (HCC1599) of the same compound?
The normalised response was 102%.

And the normalised response (CAL-148 [2])?
Its normalised response is 99.1%.

And the normalised response (SK-BR-3)?
The normalised response was 102%.

And the normalised response (MDA-MB-468)?
Its normalised response is 105%.

And the normalised response (MDA-MB-436)?
The normalised response was 101%.

What about the normalised response (CAL-120) of the same compound?
Its normalised response is 94.9%.

What about the normalised response (HDQ-P1 [3]) of the same compound?
The normalised response was 90.9%.

And the normalised response (DU-4475 [4])?
Its normalised response is 97.3%.

And the normalised response (MDA-MB-231)?
The normalised response was 99%.

And the normalised response (MFM-223)?
The normalised response was 73.4%.

And the normalised response (BT-474)?
Its normalised response is 91.8%.

And the normalised response (BT-549)?
Its normalised response is 105%.

What about the normalised viability (CAL-51 [5]) of the same compound?
Its normalised viability is 90.5%.

And the normalised viability (MDA-MB-453)?
The normalised viability was 87%.

What about the normalised viability (CAL-148 [6]) of the same compound?
Its normalised viability is 107%.

What about the normalised viability (HDQ-P1 [7]) of the same compound?
Its normalised viability is 98.3%.

What about the normalised viability (DU-4475 [8]) of the same compound?
The normalised viability was 97.6%.

And the normalised viability (CAL-85-1)?
The normalised viability was 78.6%.

With `COc1cc2ncnc(Nc3ccc(F)c(Cl)c3)c2cc1OCCCN1CCOCC1` [Gefitinib] (1000 nM) as the compound, how does the normalised response (CAL-51 [1]) read?
Its normalised response is 103%.

What about the normalised response (MCF-10A) of the same compound?
The normalised response was 34.2%.

And the normalised response (Hs578T)?
Its normalised response is 106%.

And the normalised response (HCC1599)?
The normalised response was 104%.

And the normalised response (CAL-148 [2])?
The normalised response was 80%.

What about the normalised response (SK-BR-3) of the same compound?
The normalised response was 51.9%.

And the normalised response (MDA-MB-468)?
Its normalised response is 75.3%.

What about the normalised response (MDA-MB-436) of the same compound?
Its normalised response is 103%.

What about the normalised response (CAL-120) of the same compound?
Its normalised response is 103%.

And the normalised response (HDQ-P1 [3])?
The normalised response was 69%.

And the normalised response (DU-4475 [4])?
Its normalised response is 99.7%.

And the normalised response (MDA-MB-231)?
Its normalised response is 101%.

What about the normalised response (MFM-223) of the same compound?
Its normalised response is 100%.

What about the normalised response (BT-474) of the same compound?
The normalised response was 101%.

What about the normalised response (BT-549) of the same compound?
Its normalised response is 97.7%.

And the normalised viability (CAL-51 [5])?
Its normalised viability is 107% and 98.3%.

And the normalised viability (MDA-MB-453)?
The normalised viability was 82.9% and 76.9%.

And the normalised viability (CAL-148 [6])?
The normalised viability was 79.6% and 83.3%.

And the normalised viability (HDQ-P1 [7])?
The normalised viability was 76.2% and 90.4%.

And the normalised viability (DU-4475 [8])?
The normalised viability was 101% and 86.2%.

And the normalised viability (CAL-85-1)?
The normalised viability was 54.4% and 47.4%.

Which normalised response (CAL-51 [1]) does the source give for `O=C(/C=C/c1cccc(S(=O)(=O)Nc2ccccc2)c1)NO` [Belinostat] (1000 nM) here?
The normalised response was 31.7%.

What about the normalised response (MCF-10A) of the same compound?
Its normalised response is 55.6%.

And the normalised response (Hs578T)?
Its normalised response is 50.6%.

What about the normalised response (HCC1599) of the same compound?
Its normalised response is 44.5%.

And the normalised response (CAL-148 [2])?
Its normalised response is 28.5%.

And the normalised response (SK-BR-3)?
The normalised response was 15.7%.

What about the normalised response (MDA-MB-468) of the same compound?
Its normalised response is 31.8%.

And the normalised response (MDA-MB-436)?
Its normalised response is 51.9%.

What about the normalised response (CAL-120) of the same compound?
Its normalised response is 39.8%.

What about the normalised response (HDQ-P1 [3]) of the same compound?
Its normalised response is 68.8%.

And the normalised response (DU-4475 [4])?
The normalised response was 23.1%.

What about the normalised response (MDA-MB-231) of the same compound?
The normalised response was 36%.

And the normalised response (MFM-223)?
The normalised response was 34.2%.

What about the normalised response (BT-474) of the same compound?
The normalised response was 23.1%.

What about the normalised response (BT-549) of the same compound?
The normalised response was 59%.

What about the normalised viability (CAL-51 [5]) of the same compound?
Its normalised viability is 59.9%.

What about the normalised viability (MDA-MB-453) of the same compound?
The normalised viability was 4.06%.

What about the normalised viability (CAL-148 [6]) of the same compound?
The normalised viability was 24.3%.

What about the normalised viability (HDQ-P1 [7]) of the same compound?
Its normalised viability is 49.5%.

And the normalised viability (DU-4475 [8])?
Its normalised viability is 33.3%.

What about the normalised viability (CAL-85-1) of the same compound?
Its normalised viability is 42.8%.

What does the source list for `C=C1C[C@@H]2[C@H](CC[C@]3(C)C(=O)CC[C@@H]23)[C@@]2(C)C=CC(=O)C=C12` [Exemestane] (1000 nM)?
normalised response (CAL-51 [1]): 80.5%; normalised response (MCF-10A): 112%; normalised response (Hs578T): 100%; normalised response (HCC1599): 115%; normalised response (CAL-148 [2]): 97.7%; normalised response (SK-BR-3): 108%; normalised response (MDA-MB-468): 101%; normalised response (MDA-MB-436): 102%; normalised response (CAL-120): 102%; normalised response (HDQ-P1 [3]): 99.3%; normalised response (DU-4475 [4]): 105%; normalised response (MDA-MB-231): 106%; normalised response (MFM-223): 110%; normalised response (BT-474): 103%; normalised response (BT-549): 92.5%; normalised viability (CAL-51 [5]): 96.5%; normalised viability (MDA-MB-453): 90.2%; normalised viability (CAL-148 [6]): 120%; normalised viability (HDQ-P1 [7]): 102%; normalised viability (DU-4475 [8]): 85.8%; normalised viability (CAL-85-1): 91.7%
